Data taken from patent US20050260164A1, “Gene regulation with aptamer and modulator complexes for gene therapy” (priority 2002, published 2005).

Legend:
GDNF = GDNF expression in brain of MPTP-ablated monkeys (immunohistochemistry, ELISA); assay type: in vivo, rhesus
Procedure: After euthanasia, all monkeys are perfused with saline. The brain is removed, immersed in ice-cold saline for 10 min, and sliced on a monkey brain slicer. Slabs through the head of the caudate and putamen are punched bilaterally with a 1 mm brain punch. These punches are processed for HPLC for determination of catecholamine content. Brain punches are also homogenized in 150:1 buffer I [0.1M tris-buffered saline, pH 8.1, containing 1 mM EDTA, 1% aprotinin, 10 mg/ml leupeptin, 14 mg/ml pepstatin, 4 mM phenylmethylsulfonyl fluoride (PMSF)] for 30 sec in the ice slurry. An equal amount of buffer II (0.1 M tris-buffered saline, pH 8.1, containing 1 mM EDTA, 1% aprotinin, 10 g/ml leupeptin, 14 μg/ml pepstatin, 4 mM PMSF, and 0.5% NP-40) is then added. The tubes are shaken for 2 hours. The supernatant is collected for ELISA and protein measurements. The ELISA reaction was completed in 96-well plate (Dynatech, Chantilly, Va.) according to the ELISA manufacturer's instructions (GDNF Emax ImmunoAssay Systems Kit G3520, Promega, Madison, Wis.). The optical densities are recorded in ELISA plate reader (at 450 nm wave length; Dynatech). […] The concentrations of GDNF are calculated against six-point standard curve and then adjusted to picograms of GDNF per milligram of total protein. The total protein in each tissue lysate is measured using Bio-Rad protein assay kit (Bio-Rad, Richmond, Calif.). […]

MPTP-ablated monkeys = test: Parkinsonian clinical rating scale (CRS) in MPTP-ablated monkeys; assay type: in vivo, rhesus; conditions: diflucan continuously 3-12 mg/kg x day in animal previously treated with Lenti-GDNF
Procedure: Twenty young adult rhesus are initially trained 3 days per week until asymptotic performance is achieved on a hand-reach task in which the time to pick up food treats out of recessed wells is measured (M. E. Emborg, et al., J. Comp. Neurol. 401, 253 (1998); J. H. Kordower, Cell Transplant. 4, 155 (1995)). Each experimental day, monkeys receive 10 trials per hand. Once per week, monkeys are also evaluated on a modified parkinsonian clinical rating scale (CRS) to obtain a measurement of baseline performance. All monkeys then receive an injection of 3 mg MPTP-HCl into the right carotid artery, initiating a Parkinsonian state. One week later, monkeys are evaluated on the CRS. Only monkeys displaying severe hemi-Parkinsonism with the classic crooked arm posture and dragging leg on the left side continue in the study.
On the basis of CRS scores, monkeys are matched into three groups of five monkeys, which receive on that day: lentiviral vector expressing-b-galactosidase (Lenti-βgal) (group 1); Lenti-GDNF plus continuous treatment with diflucan (group 2); or Lenti-GDNF treatment alone (group 3). […]
One week following lentiviral vector treatment, monkeys begin retesting on the hand-reach task three times per week for 3 weeks per month. […] During the weeks of hand-reach testing, monkeys are also scored once per week on the CRS. […]

With `OC(Cn1cncn1)(Cn1cncn1)c1ccc(F)cc1F` [Diflucan, Fluconazole] the GDNF expression (GDNF; diflucan continuously 3-12 mg/kg x day in animal previously treated with Lenti-GDNF) was “switched off”, the “levels of GDNF in the brains” value (GDNF; diflucan treated animals compared to animals where diflucan is omitted) was “no significant levels of GDNF” and the “therapeutic effect in Parkinson's model monkeys” value (MPTP-ablated monkeys) was “no therapeutic effect”.
